Measurements: patent publication US20260285850A1, “SUBSTITUTED OXAZOLIDINONES AND IMIDAZOLINONES AS HERBICIDES” (FMC CORPORATION, priority 2023, published 2026)

Key:
Type in all cases: in vivo
corn (Zea mays) [1] = assay: Test A postemergence application, visual injury rating 0-100; conditions: 10 days
Outline: (§1)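 Loam-sand pots got test material in surfactant-containing solvent, either as a directed soil spray before emergence or on plants at the one- to two-leaf stage. Visual injury (0-100) was read after ten greenhouse days.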

[2] = tested on: barnyardgrass (Echinochloa crus-galli); assay: as above; conditions: 10 days
Outline: as §1

[3] = tested on: blackgrass (Alopecurus myosuroides); assay: as above; conditions: 10 days
Outline: as §1

[4] = tested on: oat, wild (wild oat, Avena fatua); assay: as above; conditions: 10 days
Outline: as §1

[5] = tested on: ragweed (common ragweed, Ambrosia artemisiifolia); assay: as above; conditions: 10 days
Outline: as §1

[6] = tested on: wheat (Triticum aestivum); assay: as above; conditions: 10 days
Outline: as §1

[7] = tested on: horseweed (Erigeron canadensis); assay: as above; conditions: 10 days
Outline: as §1

soybean (Glycine max) [8] = assay: as above; conditions: 10 days
Outline: as §1

[9] = tested on: ryegrass, Italian (italian ryegrass, Lolium multiflorum); assay: as above; conditions: 10 days
Outline: as §1

kochia (Bassia scoparia) [10] = assay: as above; conditions: 10 days
Outline: as §1

[11] = tested on: palmer (palmer amaranth, palmer pigweed, Amaranthus palmeri); assay: as above; conditions: 10 days
Outline: as §1

[12] = tested on: galium (catchweed bedstraw, Galium aparine); assay: as above; conditions: 10 days
Outline: as §1

corn (Zea mays) [13] = assay: Test A preemergence soil spray, visual injury rating 0-100; conditions: 10 days, 0 = no effect, 100 = complete control
Outline: as §1

[14] = tested on: barnyardgrass (Echinochloa crus-galli); assay: as above; conditions: 10 days, 0 = no effect, 100 = complete control
Outline: as §1

[15] = tested on: blackgrass (Alopecurus myosuroides); assay: as above; conditions: 10 days, 0 = no effect, 100 = complete control
Outline: as §1

[16] = tested on: oat, wild (wild oat, Avena fatua); assay: as above; conditions: 10 days, 0 = no effect, 100 = complete control
Outline: as §1

[17] = tested on: ragweed (common ragweed, Ambrosia artemisiifolia); assay: as above; conditions: 10 days, 0 = no effect, 100 = complete control
Outline: as §1

[18] = tested on: wheat (Triticum aestivum); assay: as above; conditions: 10 days, 0 = no effect, 100 = complete control
Outline: as §1

soybean (Glycine max) [19] = assay: as above; conditions: 10 days, 0 = no effect, 100 = complete control
Outline: as §1

[20] = tested on: ryegrass, Italian (italian ryegrass, Lolium multiflorum); assay: as above; conditions: 10 days, 0 = no effect, 100 = complete control
Outline: as §1

kochia (Bassia scoparia) [21] = assay: as above; conditions: 10 days, 0 = no effect, 100 = complete control
Outline: as §1

[22] = tested on: palmer (palmer amaranth, palmer pigweed, Amaranthus palmeri); assay: as above; conditions: 10 days, 0 = no effect, 100 = complete control
Outline: as §1

rice (Oryza sativa) = assay: Test B flooded paddy test, visual plant response rating 0-100; conditions: 250 g ai/ha, Flood, applied to paddy water, evaluated after 13 days
Outline: (§2)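 Paddy-water application: test compounds went directly into water flooded 3 cm above the soil surface, with plants at 2 leaves. After a 13-day greenhouse period, responses were judged by eye relative to controls; a dash marks an untested entry.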

[23] = tested on: barnyardgrass (Echinochloa crusgalli); assay: as above; conditions: 250 g ai/ha, Flood, applied to paddy water, evaluated after 13 days
Outline: as §2

[24] = tested on: ducksalad (Heteranthera limosa); assay: as above; conditions: 250 g ai/ha, Flood, applied to paddy water, evaluated after 13 days
Outline: as §2

[25] = tested on: sedge, umbrella (small-flower umbrella sedge, Cyperus difformis); assay: as above; conditions: 250 g ai/ha, Flood, applied to paddy water, evaluated after 13 days
Outline: as §2

[26] = 31 g ai/ha, postemergence, 0 = no effect, 100 = complete control
[27] = Postemergence, 125 g ai/ha, 0 is no effect, 100 is complete control

In the case of COC(=O)C1=CCC(NC(=O)C2(C)CN(c3cc(Cl)cc(Cl)c3)C(=O)O2)C1 (stereo not drawn) [Compound 58], the “Corn plant response rating (0-100)” value (corn (Zea mays) [1]; [26]) is reported as 100, the “Corn plant response rating (0 to 100 scale)” value (corn (Zea mays) [1]; [27]) is reported as 100 and the “Barnyardgrass plant response rating (0-100)” value [2, 26] is reported as 90. For the same compound, the “Barnyardgrass plant response rating (0 to 100 scale)” value [2, 27] was 90, the “Blackgrass plant response rating (0-100)” value [3, 26] was 90 and the “Blackgrass plant response rating (0 to 100 scale)” value [3, 27] was 100. The “Oat, Wild plant response rating (0-100)” value [4, 26] was 30, the “Oat, Wild plant response rating (0 to 100 scale)” value [4, 27] was 70 and the “Ragweed plant response rating (0-100)” value [5, 26] was 30. The “Ragweed plant response rating (0 to 100 scale)” value [5, 27] was 70, the “Wheat plant response rating (0-100)” value [6, 26] was 60 and the “Wheat plant response rating (0 to 100 scale)” value [6, 27] was 90. The “Horseweed plant response rating (0-100)” value [7, 26] was 80, the “Horseweed plant response rating (0 to 100 scale)” value [7, 27] was 90 and the “Soybean plant response rating (0-100)” value (soybean (Glycine max) [8]; [26]) was 90. For the same compound, the “Soybean plant response rating (0 to 100 scale)” value (soybean (Glycine max) [8]; [27]) was 90, the “Ryegrass, Italian plant response rating (0-100)” value [9, 26] was 90 and the “Ryegrass, Italian plant response rating (0 to 100 scale)” value [9, 27] was 90. For the same compound, the “Kochia plant response rating (0-100)” value (kochia (Bassia scoparia) [10]; [26]) was 80, the “Kochia plant response rating (0 to 100 scale)” value (kochia (Bassia scoparia) [10]; [27]) was 90 and the “Amaranth, Palmer plant response rating (0-100)” value [11, 26] was 90. For the same compound, the “Amaranth, Palmer / Pigweed, Palmer plant response rating (0 to 100 scale)” value [11, 27] was 100, the “Galium plant response rating (0-100)” value [12, 26] was 90 and the “Galium plant response rating (0 to 100 scale)” value [12, 27] was 90. For the same compound, the “Corn plant response rating (0-100)” value (corn (Zea mays) [13]; 31 g ai/ha) was 10, the “Corn plant response rating (0 to 100 scale)” value (corn (Zea mays) [13]; 125 g ai/ha) was 60 and the “Barnyardgrass plant response rating (0-100)” value ([14]; 31 g ai/ha) was 80. For the same compound, the “Barnyardgrass plant response rating (0 to 100 scale)” value ([14]; 125 g ai/ha) was 90, the “Blackgrass plant response rating (0-100)” value ([15]; 31 g ai/ha) was 10 and the “Blackgrass plant response rating (0 to 100 scale)” value ([15]; 125 g ai/ha) was 30. For the same compound, the “Oat, Wild plant response rating (0-100)” value ([16]; 31 g ai/ha) was 10, the “Oat, Wild plant response rating (0 to 100 scale)” value ([16]; 125 g ai/ha) was 30 and the “Ragweed plant response rating (0-100)” value ([17]; 31 g ai/ha) was 0. For the same compound, the “Ragweed plant response rating (0 to 100 scale)” value ([17]; 125 g ai/ha) was 30, the “Wheat plant response rating (0-100)” value ([18]; 31 g ai/ha) was 20 and the “Wheat plant response rating (0 to 100 scale)” value ([18]; 125 g ai/ha) was 90. The “Soybean plant response rating (0-100)” value (soybean (Glycine max) [19]; 31 g ai/ha) was 20, the “Soybean plant response rating (0 to 100 scale)” value (soybean (Glycine max) [19]; 125 g ai/ha) was 50 and the “Ryegrass, Italian plant response rating (0-100)” value ([20]; 31 g ai/ha) was 60. The “Ryegrass, Italian plant response rating (0 to 100 scale)” value ([20]; 125 g ai/ha) was 80, the “Kochia plant response rating (0-100)” value (kochia (Bassia scoparia) [21]; 31 g ai/ha) was 10 and the “Kochia plant response rating (0 to 100 scale)” value (kochia (Bassia scoparia) [21]; 125 g ai/ha) was 70. The “Amaranth, Palmer plant response rating (0-100)” value ([22]; 31 g ai/ha) was 80, the “Amaranth, Palmer plant response rating (0 to 100 scale)” value ([22]; 125 g ai/ha) was 100 and the “Plant response rating, Rice (0 to 100 scale, 0 is no effect and 100 is complete control)” value (rice (Oryza sativa)) was 70. For the same compound, the “Plant response rating, Barnyardgrass (0 to 100 scale, 0 is no effect and 100 is complete control)” value [23] was 60, the “Plant response rating, Ducksalad (0 to 100 scale, 0 is no effect and 100 is complete control)” value [24] was 95 and the “Plant response rating, Sedge, Umbrella (0 to 100 scale, 0 is no effect and 100 is complete control)” value [25] was 98.
